Tested on: NL-RLuc virus
Experiment: Inhibition of HIV replication (NL-RLuc luciferase reporter virus in MT-2 cells)
Type: cell-based
Conditions: Human immunodeficiency virus 1, MT2, 120 h
Description: Inhibition of HIV replication: A recombinant NL-RLuc proviral clone was constructed in which a section of the nef gene from NL4-3 was replaced with the Renilla Luciferase gene. This virus is fully infectious and can undergo multiple cycles of replication in cell culture. In addition, the luciferous reporter provides a simple and easy method for quantitating the extent of virus growth and consequently, the antiviral activity of test compounds. The plasmid pNLRLuc contains the proviral NL-Rluc DNA cloned into pUC18 at the PvuII site. The NL-RLuc virus was prepared by transfection of 293T cells with the plasmid pNLRLuc. Transfections were performed using the LipofectAMINE PLUS kit from Invitrogen (Carlsbad, Calif.) according to the manufacturer and the virus generated was titered in MT-2 cells. For susceptibility analyses, the titrated virus was used to infect MT-2 cells in the presence of compound, and after 5 days of incubation, cells were processed and quantitated for virus growth by the amount of expressed luciferase. Assay media was RPMI 1640 supplemented with 10% heat inactivated fetal bovine serum (FBS), 100 units/ml penicillin G/100 units/ml streptomycin, 10 mM HEPES buffer pH 7.55 and 2 mM L-glutamine. The results from at least 2 experiments were used to calculate the EC50 values. Luciferase was quantitated using the Dual Luciferase kit from Promega (Madison, Wis.). Susceptibility of viruses to compounds was determined by incubation in the presence of serial dilutions of the compound. The 50% effective concentration (EC50) was calculated by using the exponential form of the median effect equation where (Fa)=1/[1+(ED50/drug conc.)^m] (Johnson V A, Byington R T. Infectivity Assay. In Techniques in HIV Research. ed. Aldovini A, Walker B D. 71-76. New York: Stockton Press. 1990).

SMILES | EC50
Cc1nc2cc3nn2c(c1[C@H](OC(C)(C)C)C(=O)O)N1CCC(C)(CC1)OC/C=C/CCc1ccn(n1)-c1cccc-3c1 [Example 1, (2S)-tert-Butoxy[(21E)-4,25-dimethyl-24-oxa-1,5,7,8,15,30-hexaazahexacyclo[23.2.2.1^6,9.1^10,14.1^15,18.0^2,7]dotriaconta-2,4,6(32),8,10(31),11,13,16,18(30),21-decaen-3-yl]acetic acid] | 87 nM
Cc1nc2cc3nn2c(c1[C@H](OC(C)(C)C)C(=O)O)N1CCC(C)(CC1)OCCCCCc1ccn(n1)-c1cccc-3c1 [Example 2, (2S)-tert-Butoxy[4,25-dimethyl-24-oxa-1,5,7,8,15,30-hexaazahexacyclo[23.2.2.1^6,9.1^10,14.1^15,18.0^2,7]dotriaconta-2,4,6(32),8,10(31),11,13,16,18(30)-nonaen-3-yl]acetic acid] | 49 nM
Cc1nc2cc3nn2c(c1[C@H](OC(C)(C)C)C(=O)O)N1CCC(C)(CC1)OCCCCCn1ccc(n1)-c1cccc-3c1 [Example 3, (2S)-tert-Butoxy[4,25-dimethyl-24-oxa-1,5,7,8,18,30-hexaazahexacyclo[23.2.2.1^6,9.1^10,14.1^15,18.0^2,7]dotriaconta-2,4,6(32),8,10(31),11,13,15(30),16-nonaen-3-yl]acetic acid] | 26 nM
Cc1nc2cc3nn2c(c1[C@H](OC(C)(C)C)C(=O)O)N1CCC(C)(CC1)OCCCCn1ccc(n1)-c1cccc-3c1 [Example 4, (2S)-tert-butoxy[4,24-dimethyl-23-oxa-1,5,7,8,18,29-hexaazahexacyclo[22.2.2.1^6,9.1^10,14.1^15,18.0^2,7]hentriaconta-2,4,6(31),8,10(30),11,13,15(29),16-nonaen-3-yl]acetic acid] | 14 nM
Cc1cc2n(n1)-c1cccc(c1)-c1cc3nc(C)c([C@H](OC(C)(C)C)C(=O)O)c(n3n1)N1CCC(C)(CCCCCC2)CC1 [Example 5, (2S)-tert-Butoxy[4,17,26-trimethyl-1,5,7,8,15,16-hexaazahexacyclo[24.2.2.1^6,9.1^10,14.0^2,7.0^15,19]dotriaconta-2,4,6(32),8,10(31),11,13,16,18-nonaen-3-yl]acetic acid] | 4 nM
Cc1cc2n(n1)-c1cccc(c1)-c1cc3nc(C)c([C@H](OC(C)(C)C)C(=O)O)c(n3n1)N1CCC(C)(CCCCC2)CC1 [Example 6, (2S)-tert-butoxy[4,17,25-trimethyl-1,5,7,8,15,16-hexaazahexacyclo[23.2.2.1^6,9.1^10,14.0^2,7.0^15,19]hentriaconta-2,4,6(31),8,10(30),11,13,16,18-nonaen-3-yl]acetic acid] | 7 nM
Cc1nc2c(s1)CCCCCCC1(C)CCN(CC1)c1c([C@H](OC(C)(C)C)C(=O)O)c(C)nc3cc(nn13)-c1cccc-2c1 [Example 7, (2S)-tert-Butoxy[4,17,26-trimethyl-18-thia-1,5,7,8,16-pentaazahexacyclo[24.2.2.1^6,9.1^10,14.0^2,7.0^15,19]dotriaconta-2,4,6(32),8,10(31),11,13,15(19),16-nonaen-3-yl]acetic acid] | 7 nM
Cc1nc2c(s1)CCCCCC1(C)CCN(CC1)c1c([C@H](OC(C)(C)C)C(=O)O)c(C)nc3cc(nn13)-c1cccc-2c1 [Example 8, (2S)-tert-butoxy[4,17,25-trimethyl-18-thia-1,5,7,8,16-pentaazahexacyclo[23.2.2.1^6,9.1^10,14.0^2,7.0^15,19]hentriaconta-2,4,6(31),8,10(30),11,13,15(19),16-nonaen-3-yl]acetic acid] | 7 nM
Cc1nc2cc3nn2c(c1[C@H](OC(C)(C)C)C(=O)O)N1CCC(C)(CC/C=C/CCc2nc(C)c(C)n2-c2cccc-3c2)CC1 [Example 9, (2S)-tert-Butoxy[4,16,17,26-tetramethyl-1,5,7,8,15,18-hexaazahexacyclo[24.2.2.1^6,9.1^10,14.0^2,7.0^15,19]dotriaconta-2,4,6(32),8,10(31),11,13,16,18,22-decaen-3-yl]acetic acid] | 9 nM
Cc1nc2cc3nn2c(c1[C@H](OC(C)(C)C)C(=O)O)N1CCC(C)(CCCCCCc2nc(C)c(C)n2-c2cccc-3c2)CC1 [Example 10, (2S)-tert-Butoxy[4,16,17,26-tetramethyl-1,5,7,8,15,18-hexaazahexacyclo[24.2.2.1^6,9.1^10,14.0^2,7.0^15,19]dotriaconta-2,4,6(32),8,10(31),11,13,16,18-nonaen-3-yl]acetic acid] | 7 nM

Reference: patent publication US9932356B2, “Pyrazolopyrimidine macrocycles as inhibitors of human immunodeficiency virus replication” (priority 2014, dated 2018)
